In paper PMC7252619 (PLoS ONE, 2020):
Like-named read-outs stand apart in the source and are kept apart here.

Columns and labels:
[1] = WST-1 cytotoxicity assay on Jurkat cells (T-cell line); format: cell-based, human; conditions: human, Jurkat cells (T-cell line), mean of 4 independent measures, read-out: Cytotoxicity, WST-1 Jurkat IC 50 (µM) Mean
[2] = WST-1 cytotoxicity assay on RPMI1788 cells (B-cell line); format: cell-based, human; conditions: human, RPMI1788 cells (B-cell line), mean of 4 independent measures, read-out: Cytotoxicity, WST-1 RPMI 1788 IC 50 (µM) Mean
Experimental: (§1) Compounds were prepared as 10 mM stock solutions in dimethylsulfoxide (DMSO)and were tested at 50-10-1-0.1-0.01 and 0.001 μM in the 4 assays.
The human B cell line RPMI1788 (American Type Culture Collection, USA) and the human T cell line Jurkat (European Collection of Cell Cultures, ECACC, England) were maintained in RPMI1640 culture medium (BioWhittaker®, Lonza, Verviers, Belgium) containing 10% foetal calf serum (FCS, HyClone® Thermo Scientific, United Kingdom) and 5 μg/mL gentamicin sulphate (BioWhittaker®, Lonza, Verviers, Belgium) at 37°C and 5% CO2.
WST-1 assays on RPMI-1788 cells and Jurkat cells were performed as follows: 20 μL of test compound dilution were added to each well containing exponential growing cells and the plates were incubated for 48 h at 37°C, 5% CO2. Untreated cells and positive control (1% triton X-100, for the last 15 min) served as reference for maximum and minimum viability. At the end of incubation 100 μL of supernatant were removed and replaced by 10 μL of WST-1 solution (Cell Proliferation Reagent WST-1, Roche Applied Science).

NEK2 = biological target: T1, NEK2 (Homo sapiens, UniProt P51955); assay: Kinase activity test (ReactionBiology), % enzyme activity relative to DMSO; format: biochemical; conditions: NEK2;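 also: FDA-approved drugs chosen by structure-based repositioning, each screened at 10 or 1 µM for kinase activity, expressed as percent of DMSO controls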
T1 construct: purchased ReactionBiology
T1 sequence (P51955 1-445): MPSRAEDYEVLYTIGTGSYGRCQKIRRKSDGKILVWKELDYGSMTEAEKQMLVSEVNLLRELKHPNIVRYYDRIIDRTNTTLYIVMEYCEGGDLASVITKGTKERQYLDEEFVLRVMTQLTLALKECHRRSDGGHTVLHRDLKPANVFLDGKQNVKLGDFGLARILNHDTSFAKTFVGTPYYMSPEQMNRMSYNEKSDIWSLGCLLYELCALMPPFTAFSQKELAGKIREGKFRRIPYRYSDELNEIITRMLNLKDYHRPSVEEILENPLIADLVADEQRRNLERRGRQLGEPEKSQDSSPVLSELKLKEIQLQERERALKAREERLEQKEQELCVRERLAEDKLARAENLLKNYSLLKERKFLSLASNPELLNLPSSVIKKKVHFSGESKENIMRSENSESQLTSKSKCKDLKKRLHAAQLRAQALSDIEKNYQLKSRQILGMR

human CD19+ B cells = assay: B-cell assay: IgG production of ODN2006-stimulated primary B cells (AlphaLISA); format: cell-based; conditions: Homo sapiens, B-cell
Experimental: as §1
Blood samples of healthy volunteers were collected at the Red Cross of Mechelen, Belgium.
Highly purified naive peripheral human B cells were separated from fresh human PBMCs on magnetic columns by positive selection using CD19 magnetic beads according to the manufacturer’s instructions (MACS Miltenyi Biotech, Leiden, The Netherlands). […] Freshly isolated human CD19+ B cells were then plated at 25 000 cells per well in a 384-well plate (Perkin Elmer, Zaventem, Belgium) in 55 μL in DMEM medium containing 10% FCS and 5 μg/mL gentamicin sulphate. After 7 days of stimulation with 0.1 μM ODN2006 (InvivoGen, Toulouse, France), supernatant was taken for analysis of IgG using the AlphaLISA human IgG kit according to the manufacturer’s instructions (Perkin Elmer, Zaventem, Belgium).

[3] = system: human PBMCs (responder cells) with RPMI1788 stimulator cells; assay: Mixed Lymphocyte Reaction (MLR, T cell assay), 3H-thymidine incorporation; format: cell-based; conditions: for IC50: Homo sapiens, RPMI-1788, mean of 4 independent measures, read-out: T-cell efficacy, MLR IC 50 (µM) Mean; for Selectivity Index (SI) MLR/B-cell: ratio of IC50 values
Experimental: In order to test the efficacy and selectivity of the hit compounds on B-cells, 4 assays were performed: B-cell assay, Mixed Lymphocyte Reaction (MLR), WST-1 assay on RPMI1788 cells (B-cell line) and cytotoxicity WST-1 assay on Jurkat cells (T-cell line). Compounds were prepared as 10 mM stock solutions in dimethylsulfoxide (DMSO)and were tested at 50-10-1-0.1-0.01 and 0.001 μM in the 4 assays.
Blood samples of healthy volunteers were collected at the Red Cross of Mechelen, Belgium. Each donor consents to the use of their blood for research purposes. […] The human B cell line RPMI1788 (American Type Culture Collection, USA) and the human T cell line Jurkat (European Collection of Cell Cultures, ECACC, England) were maintained in RPMI1640 culture medium (BioWhittaker®, Lonza, Verviers, Belgium) containing 10% foetal calf serum (FCS, HyClone® Thermo Scientific, United Kingdom) and 5 μg/mL gentamicin sulphate (BioWhittaker®, Lonza, Verviers, Belgium) at 37°C and 5% CO2.
MLR assay (T cell assay): Freshly isolated human PBMCs (responder cells) were resuspended in RPMI1640 medium containing 10% FCS and 5nμg/mL gentamicin sulphate. RPMI1788 cells (stimulator cells) were inactivated by treatment with mitomycin C (Kyowa®, Takeda Belgium, Brussels, Belgium) for 20 min at 37°C, washed and finally suspended in culture medium. An amount of 100 μL of each cell suspension was mixed with 20 μL of diluted compound. The mixed cells were cultured at 37°C for 6 days in 5% CO2. DNA synthesis was assayed by the addition of 10 μCi (methyl-3H) thymidine (Perkin Elmer, Zaventem, Belgium) per well during the last 18 h in culture. Thereafter, the cells were harvested on glass filter paper and the counts per minute determined in a liquid scintillation counter (TopCount, Perkin Elmer, Zaventem, Belgium).

CK1d = biological target: T2, CK1d (Homo sapiens, UniProt P48730); assay: Kinase activity test (ReactionBiology), % enzyme activity relative to DMSO; format: biochemical; conditions: CK1d
T2 construct: purchased ReactionBiology
T2 sequence (P48730 whole entry): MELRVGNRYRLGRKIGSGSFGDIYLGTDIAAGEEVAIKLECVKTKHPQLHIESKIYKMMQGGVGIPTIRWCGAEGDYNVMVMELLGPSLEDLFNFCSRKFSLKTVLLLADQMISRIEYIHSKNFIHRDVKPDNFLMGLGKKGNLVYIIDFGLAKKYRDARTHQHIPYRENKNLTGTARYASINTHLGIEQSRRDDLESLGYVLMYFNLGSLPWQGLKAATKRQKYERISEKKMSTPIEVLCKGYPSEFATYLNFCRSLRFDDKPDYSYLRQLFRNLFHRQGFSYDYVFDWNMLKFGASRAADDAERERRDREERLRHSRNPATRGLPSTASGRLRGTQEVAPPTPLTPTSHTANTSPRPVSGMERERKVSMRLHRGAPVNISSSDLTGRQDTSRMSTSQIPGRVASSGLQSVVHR

VEGFR2 = VEGFR2 (Homo sapiens, UniProt P35968); assay: as above; format: biochemical; design: purchased ReactionBiology; conditions: VEGFR2;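 also: VEGFR2 was one member of a ten-kinase screening panel testing marketed FDA-approved drugs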
Sequence of VEGFR2 (P35968 20-1356): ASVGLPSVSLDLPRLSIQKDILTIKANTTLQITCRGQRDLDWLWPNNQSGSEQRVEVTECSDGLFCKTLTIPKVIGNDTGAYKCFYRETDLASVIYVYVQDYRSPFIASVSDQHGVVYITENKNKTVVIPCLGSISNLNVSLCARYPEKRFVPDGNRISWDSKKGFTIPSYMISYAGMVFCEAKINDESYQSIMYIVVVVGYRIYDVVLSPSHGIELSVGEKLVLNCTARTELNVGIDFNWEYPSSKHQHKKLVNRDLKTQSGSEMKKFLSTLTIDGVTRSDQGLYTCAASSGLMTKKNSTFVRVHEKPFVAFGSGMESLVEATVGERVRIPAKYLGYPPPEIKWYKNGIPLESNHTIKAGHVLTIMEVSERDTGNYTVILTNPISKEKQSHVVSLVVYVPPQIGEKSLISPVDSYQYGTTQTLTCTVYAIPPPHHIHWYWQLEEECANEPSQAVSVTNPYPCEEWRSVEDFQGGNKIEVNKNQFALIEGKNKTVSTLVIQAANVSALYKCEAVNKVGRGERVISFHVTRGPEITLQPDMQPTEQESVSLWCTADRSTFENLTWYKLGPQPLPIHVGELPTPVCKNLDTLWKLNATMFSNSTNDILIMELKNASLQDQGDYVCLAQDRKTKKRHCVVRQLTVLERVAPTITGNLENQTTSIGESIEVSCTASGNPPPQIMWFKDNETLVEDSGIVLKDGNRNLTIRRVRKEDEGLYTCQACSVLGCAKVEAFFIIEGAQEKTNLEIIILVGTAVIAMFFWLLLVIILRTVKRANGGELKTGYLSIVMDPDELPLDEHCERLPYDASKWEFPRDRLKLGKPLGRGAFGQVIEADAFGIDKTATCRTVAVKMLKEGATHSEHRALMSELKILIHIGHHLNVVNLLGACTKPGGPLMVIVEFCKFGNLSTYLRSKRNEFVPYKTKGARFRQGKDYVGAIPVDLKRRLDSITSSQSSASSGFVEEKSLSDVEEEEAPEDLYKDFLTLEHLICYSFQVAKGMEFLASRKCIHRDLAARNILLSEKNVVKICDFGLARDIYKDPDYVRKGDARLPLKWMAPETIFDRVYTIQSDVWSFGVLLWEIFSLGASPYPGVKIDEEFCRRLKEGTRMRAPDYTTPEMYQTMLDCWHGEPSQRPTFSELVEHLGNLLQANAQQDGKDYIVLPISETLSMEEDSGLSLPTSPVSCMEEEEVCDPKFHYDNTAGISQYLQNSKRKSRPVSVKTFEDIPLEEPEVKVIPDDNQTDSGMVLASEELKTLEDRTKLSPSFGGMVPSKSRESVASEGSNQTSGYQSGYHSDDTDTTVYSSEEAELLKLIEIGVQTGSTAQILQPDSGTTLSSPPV

DAPK1 = biological target: T3, DAPK1 (Homo sapiens, UniProt P53355); assay: as above; format: biochemical; conditions: DAPK1
T3 construct: purchased ReactionBiology
T3 sequence (P53355 whole entry): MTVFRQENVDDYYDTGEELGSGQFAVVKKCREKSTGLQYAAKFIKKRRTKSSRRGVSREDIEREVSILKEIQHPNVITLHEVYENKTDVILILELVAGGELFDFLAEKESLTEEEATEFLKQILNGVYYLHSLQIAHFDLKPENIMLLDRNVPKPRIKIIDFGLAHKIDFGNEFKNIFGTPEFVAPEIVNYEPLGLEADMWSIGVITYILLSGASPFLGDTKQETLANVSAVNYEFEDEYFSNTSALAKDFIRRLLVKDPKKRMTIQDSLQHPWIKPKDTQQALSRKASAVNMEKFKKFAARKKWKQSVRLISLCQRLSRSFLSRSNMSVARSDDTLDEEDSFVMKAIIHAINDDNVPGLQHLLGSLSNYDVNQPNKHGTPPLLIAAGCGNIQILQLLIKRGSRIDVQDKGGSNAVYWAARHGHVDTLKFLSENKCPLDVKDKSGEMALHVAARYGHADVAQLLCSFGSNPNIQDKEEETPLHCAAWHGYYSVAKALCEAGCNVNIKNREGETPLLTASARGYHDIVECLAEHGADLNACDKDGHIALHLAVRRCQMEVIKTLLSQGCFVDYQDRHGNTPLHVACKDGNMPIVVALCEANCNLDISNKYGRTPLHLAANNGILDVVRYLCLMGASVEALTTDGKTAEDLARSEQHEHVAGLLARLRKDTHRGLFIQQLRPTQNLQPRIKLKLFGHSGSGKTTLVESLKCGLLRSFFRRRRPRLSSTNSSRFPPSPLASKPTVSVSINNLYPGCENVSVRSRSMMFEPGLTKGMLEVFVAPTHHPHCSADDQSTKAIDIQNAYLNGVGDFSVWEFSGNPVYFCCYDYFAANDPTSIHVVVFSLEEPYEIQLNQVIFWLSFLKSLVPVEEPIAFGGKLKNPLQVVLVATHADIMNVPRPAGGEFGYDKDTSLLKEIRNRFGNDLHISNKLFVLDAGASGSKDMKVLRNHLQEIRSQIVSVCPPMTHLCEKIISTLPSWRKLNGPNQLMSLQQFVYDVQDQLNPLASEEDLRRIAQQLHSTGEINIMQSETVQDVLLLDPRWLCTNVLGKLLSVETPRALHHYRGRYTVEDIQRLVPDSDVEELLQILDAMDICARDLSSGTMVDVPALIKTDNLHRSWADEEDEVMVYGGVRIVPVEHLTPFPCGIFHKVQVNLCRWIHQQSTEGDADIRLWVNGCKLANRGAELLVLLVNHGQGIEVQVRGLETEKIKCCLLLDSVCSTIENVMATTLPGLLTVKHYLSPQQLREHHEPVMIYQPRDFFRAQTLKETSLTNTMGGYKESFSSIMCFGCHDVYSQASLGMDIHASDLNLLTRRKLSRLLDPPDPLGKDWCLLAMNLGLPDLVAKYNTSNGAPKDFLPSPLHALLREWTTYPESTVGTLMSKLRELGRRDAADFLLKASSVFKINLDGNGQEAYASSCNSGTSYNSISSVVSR

EPHB4 = biological target: T4, EPHB4 (Homo sapiens, UniProt P54760); assay: as above; format: biochemical; conditions: EPHB4, Average;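 also: EPHB4 was one of ten selected kinases in the screening panel, with enzyme activity expressed as a percentage of DMSO controls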
T4 construct: purchased ReactionBiology
T4 sequence (P54760 16-987): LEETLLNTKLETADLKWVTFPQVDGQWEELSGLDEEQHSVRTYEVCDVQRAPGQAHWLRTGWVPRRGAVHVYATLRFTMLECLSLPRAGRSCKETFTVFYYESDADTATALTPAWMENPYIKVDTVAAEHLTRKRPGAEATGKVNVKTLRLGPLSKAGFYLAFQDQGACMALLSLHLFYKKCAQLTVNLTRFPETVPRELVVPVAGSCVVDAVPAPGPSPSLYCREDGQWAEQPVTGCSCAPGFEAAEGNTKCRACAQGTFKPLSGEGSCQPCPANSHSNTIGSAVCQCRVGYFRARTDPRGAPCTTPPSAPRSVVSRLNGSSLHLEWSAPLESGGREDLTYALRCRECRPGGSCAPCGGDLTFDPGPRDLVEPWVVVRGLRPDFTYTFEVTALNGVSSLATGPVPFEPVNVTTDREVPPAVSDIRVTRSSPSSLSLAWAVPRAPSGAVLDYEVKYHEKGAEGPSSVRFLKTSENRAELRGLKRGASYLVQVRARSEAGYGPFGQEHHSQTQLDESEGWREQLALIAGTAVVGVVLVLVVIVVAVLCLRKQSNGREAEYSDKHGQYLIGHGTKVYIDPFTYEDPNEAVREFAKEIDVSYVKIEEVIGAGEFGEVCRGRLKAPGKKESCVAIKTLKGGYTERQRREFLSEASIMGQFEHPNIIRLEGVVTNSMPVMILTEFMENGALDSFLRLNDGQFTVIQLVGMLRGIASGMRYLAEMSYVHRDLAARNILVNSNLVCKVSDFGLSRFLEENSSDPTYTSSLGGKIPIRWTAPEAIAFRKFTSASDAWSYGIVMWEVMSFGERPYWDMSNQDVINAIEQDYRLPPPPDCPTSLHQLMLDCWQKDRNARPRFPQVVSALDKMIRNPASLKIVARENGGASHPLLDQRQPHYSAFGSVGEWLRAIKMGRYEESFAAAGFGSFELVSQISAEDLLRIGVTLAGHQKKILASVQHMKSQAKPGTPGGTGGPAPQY

CDC7 = biological target: T5, CDC7 (Homo sapiens, UniProt O00311); assay: as above; format: biochemical; conditions: CDC7, Average;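 also: each drug screened at both 10 µM and 1 µM across a ten-kinase panel, activity expressed as percent of DMSO control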
T5 construct: purchased ReactionBiology
T5 sequence (O00311 whole entry): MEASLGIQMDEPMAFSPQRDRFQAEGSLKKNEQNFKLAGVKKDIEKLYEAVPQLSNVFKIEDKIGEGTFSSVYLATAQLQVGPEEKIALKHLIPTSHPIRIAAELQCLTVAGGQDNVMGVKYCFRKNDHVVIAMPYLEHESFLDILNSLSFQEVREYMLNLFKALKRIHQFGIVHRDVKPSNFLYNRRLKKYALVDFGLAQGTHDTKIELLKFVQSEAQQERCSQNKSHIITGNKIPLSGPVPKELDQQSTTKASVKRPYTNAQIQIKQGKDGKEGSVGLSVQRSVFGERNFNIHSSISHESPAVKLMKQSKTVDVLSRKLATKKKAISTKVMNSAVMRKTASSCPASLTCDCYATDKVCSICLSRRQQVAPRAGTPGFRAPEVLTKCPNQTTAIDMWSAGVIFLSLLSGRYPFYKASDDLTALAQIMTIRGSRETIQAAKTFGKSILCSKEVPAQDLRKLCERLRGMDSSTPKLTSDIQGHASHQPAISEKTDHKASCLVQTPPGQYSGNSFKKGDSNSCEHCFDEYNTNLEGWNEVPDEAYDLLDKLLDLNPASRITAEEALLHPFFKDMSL
T5 sequence (Q9UBU7 whole entry partner): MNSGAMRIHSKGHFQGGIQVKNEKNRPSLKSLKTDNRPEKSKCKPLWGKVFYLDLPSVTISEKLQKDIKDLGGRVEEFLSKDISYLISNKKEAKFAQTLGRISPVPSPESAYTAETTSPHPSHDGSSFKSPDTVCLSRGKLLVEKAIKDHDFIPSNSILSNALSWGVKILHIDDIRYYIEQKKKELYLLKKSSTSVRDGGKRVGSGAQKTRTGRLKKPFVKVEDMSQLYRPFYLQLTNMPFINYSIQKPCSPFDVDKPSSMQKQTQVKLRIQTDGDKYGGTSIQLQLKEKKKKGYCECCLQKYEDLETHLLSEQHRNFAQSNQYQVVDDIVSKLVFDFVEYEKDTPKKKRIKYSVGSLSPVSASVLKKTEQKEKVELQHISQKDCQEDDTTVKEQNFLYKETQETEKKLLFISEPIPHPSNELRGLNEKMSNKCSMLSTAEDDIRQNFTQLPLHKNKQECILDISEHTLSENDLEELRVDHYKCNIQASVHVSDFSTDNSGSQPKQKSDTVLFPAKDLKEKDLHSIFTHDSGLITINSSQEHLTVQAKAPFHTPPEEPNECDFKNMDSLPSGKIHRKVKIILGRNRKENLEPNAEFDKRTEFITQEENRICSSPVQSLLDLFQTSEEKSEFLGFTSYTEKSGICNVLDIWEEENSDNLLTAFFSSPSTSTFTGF

[4] = 1 uM, Average, read-out: % Enzyme Activity (relative to DMSO controls), Average
[5] = 1 uM, replicate Data 1, read-out: % Enzyme Activity (relative to DMSO controls), Data 1
[6] = 1 uM, replicate Data 2, read-out: % Enzyme Activity (relative to DMSO controls), Data 2
[7] = 10 uM, Average, read-out: % Enzyme Activity (relative to DMSO controls), Average
[8] = 10 uM, replicate Data 1, read-out: % Enzyme Activity (relative to DMSO controls), Data 1
[9] = 10 uM, replicate Data 2, read-out: % Enzyme Activity (relative to DMSO controls), Data 2
[10] = compound 1μM, relative to DMSO controls, read-out: % Enzyme activity at 1μM
[11] = compound 10μM, relative to DMSO controls, read-out: % Enzyme activity at 10μM
[12] = 168 h, IgG production, ODN2006 0.1 μM, 7 days, mean of 4 independent experiments, read-out: B-cell IC50

Molecule `CN1CCN(CCCN2c3ccccc3Sc3ccc(Cl)cc32)CC1` [Prochlorperazine, reference compound] has an IC50 at 48 h [1] of 21.9 µM, an IC50 at 48 h [2] of 9.63 µM and a remaining activity at 1 µM (NEK2; [4]) of 70.1%. The remaining activity at 1 µM (NEK2; [5]) was 67.7%, the remaining activity at 1 µM (NEK2; [6]) was 72.5% and the remaining activity at 10 µM (NEK2; [7]) was 68.7%. For the same molecule, the remaining activity at 10 µM (NEK2; [8]) was 69.6%, the remaining activity at 10 µM (NEK2; [9]) was 67.8% and the remaining activity at 1 µM (NEK2; [10]) was 70.1%. It also gave a remaining activity at 10 µM (NEK2; [11]) of 68.7%.
For `N[C@@H](Cc1cc(I)c(Oc2ccc(O)c(I)c2)c(I)c1)C(=O)O` [Triiodothyronine], the IC50 (human CD19+ B cells; 168 h, read-out: B-cell IC50 (μM)) was 36.8 µM, the IC50 at 48 h [1] was greater than 50 µM and the IC50 [3] was 44.2 µM.
`C[C@@H]1CCN(C(=O)CC#N)C[C@@H]1N(C)c1ncnc2[nH]ccc12` [Tofacitinib] showed an IC50 at 48 h [1] greater than 50 µM and an IC50 at 48 h [2] greater than 50 µM.
`CC/C(=C(/CC)c1ccc(O)cc1)c1ccc(O)cc1` [Diethylstilbestrol, reference compound] showed a remaining activity at 1 µM (CK1d; [4]) of 106%, a remaining activity at 1 µM (CK1d; [5]) of 107% and a remaining activity at 1 µM (CK1d; [6]) of 104%. For the same molecule, the remaining activity at 10 µM (CK1d; [7]) was 84.8%, the remaining activity at 10 µM (CK1d; [8]) was 84.6% and the remaining activity at 10 µM (CK1d; [9]) was 85.1%. For the same molecule, the IC50 at 48 h [1] was 6.7 µM, the IC50 at 48 h [2] was 31.4 µM and the remaining activity at 1 µM (NEK2; [4]) was 97.9%. The remaining activity at 1 µM (NEK2; [5]) was 94.5%, the remaining activity at 1 µM (NEK2; [6]) was 101% and the remaining activity at 10 µM (NEK2; [7]) was 50.7%. The remaining activity at 10 µM (NEK2; [8]) was 44.7%, the remaining activity at 10 µM (NEK2; [9]) was 56.7% and the remaining activity at 1 µM (NEK2; [10]) was 97.9%. It also gave a remaining activity at 10 µM (NEK2; [11]) of 50.7%.
For `Cc1cc(C#N)cc(C)c1Oc1nc(Nc2ccc(C#N)cc2)nc(N)c1Br` [Etravirine, reference compound], the IC50 (human CD19+ B cells; [12]) was 5.9 µM, the IC50 at 48 h [1] was 30.4 µM and the IC50 at 48 h [2] was 8 µM. The remaining activity at 1 µM (VEGFR2; [4]) was 108%, the remaining activity at 1 µM (VEGFR2; [5]) was 108% and the remaining activity at 1 µM (VEGFR2; [6]) was 108%. It also gave a remaining activity at 10 µM (VEGFR2; [7]) of 41.1%, a remaining activity at 10 µM (VEGFR2; [8]) of 42.6% and a remaining activity at 10 µM (VEGFR2; [9]) of 39.5%. For the same molecule, the remaining activity at 1 µM (VEGFR2; [10]) was 108%, the remaining activity at 10 µM (VEGFR2; [11]) was 41.1% and the IC50 [3] was 7.27 µM. The “Selectivity Index (SI) MLR/B-cell” value [3] was 1.23.
`C=CC(=O)N1CCC[C@@H](n2nc(-c3ccc(Oc4ccccc4)cc3)c3c(N)ncnc32)C1` [Ibrutinib, reference compound] gave an IC50 (human CD19+ B cells; [12]) of 0.0002 µM, an IC50 (human CD19+ B cells; mean of 4 independent measures, read-out: B-cell efficacy, B cell IC 50 (µM) Mean) of 0.000181 µM and an IC50 at 48 h [1] of 14.7 µM. The IC50 at 48 h [2] was 0.7 µM, the remaining activity at 1 µM (DAPK1; [4]) was 95.6% and the remaining activity at 1 µM (DAPK1; [5]) was 97.4%. For the same molecule, the remaining activity at 1 µM (DAPK1; [6]) was 93.8%, the remaining activity at 10 µM (DAPK1; [7]) was 23.7% and the remaining activity at 10 µM (DAPK1; [8]) was 24%. The remaining activity at 10 µM (DAPK1; [9]) was 23.5%, the remaining activity at 1 µM (DAPK1; [10]) was 95.6% and the remaining activity at 10 µM (DAPK1; [11]) was 23.7%. The remaining activity at 1 µM (VEGFR2; [4]) was 19.5%, the remaining activity at 1 µM (VEGFR2; [5]) was 19.6% and the remaining activity at 1 µM (VEGFR2; [6]) was 19.5%. For the same molecule, the remaining activity at 10 µM (VEGFR2; [8]) was 1.46%, the remaining activity at 10 µM (VEGFR2; [9]) was 1.53% and the “inhibition of the kinase activity (strong/weak)” value (VEGFR2; at 10 and 1 μM) was “strong (We considered a 50% inhibition of the kinase activity as strong)”. It also gave a remaining activity at 1 µM (VEGFR2; [10]) of 19.5% and an IC50 [3] of 1 µM.
In the case of `O=C(N[C@H](CO)[C@H](O)c1ccc([N+](=O)[O-])cc1)C(Cl)Cl` [Chloramphenicol], the “% Enzyme Activity (relative to DMSO controls), Average” value (EPHB4; 1 uM) is reported as 98.03%, the “% Enzyme Activity (relative to DMSO controls), Average” value (EPHB4; 10 uM) is reported as 95.14% and the “% Enzyme Activity (relative to DMSO controls), Average” value (CDC7; 1 uM) is reported as 70.23%. For the same molecule, the “% Enzyme Activity (relative to DMSO controls), Average” value (CDC7; 10 uM) was 72.94%, the “% Enzyme Activity (relative to DMSO controls), Average” value (CK1d; 1 uM, Average) was 107.32% and the “% Enzyme Activity (relative to DMSO controls), Average” value (DAPK1; 1 uM, Average) was 109.45%. For the same molecule, the “% Enzyme Activity (relative to DMSO controls), Average” value (DAPK1; 10 uM, Average) was 99.12%, the “% Enzyme Activity (relative to DMSO controls), Average” value (VEGFR2; 1 uM, Average) was 102.81% and the “% Enzyme Activity (relative to DMSO controls), Average” value (VEGFR2; 10 uM, Average) was 107.54%.
`CCN(CC)Cc1cc(Nc2ccnc3cc(Cl)ccc23)ccc1O` [Amodiaquine, reference compound] showed an IC50 (human CD19+ B cells; [12]) of 0.66 µM, a remaining activity at 1 µM (CK1d; [4]) of 107% and a remaining activity at 1 µM (CK1d; [5]) of 106%. For the same molecule, the remaining activity at 1 µM (CK1d; [6]) was 108%, the remaining activity at 10 µM (CK1d; [7]) was 69.1% and the remaining activity at 10 µM (CK1d; [8]) was 70.5%. For the same molecule, the remaining activity at 10 µM (CK1d; [9]) was 67.6%, the remaining activity at 1 µM (CK1d; [10]) was 107% and the remaining activity at 10 µM (CK1d; [11]) was 69.1%. The IC50 at 48 h [1] was 26.2 µM, the IC50 at 48 h [2] was 28.1 µM and the IC50 [3] was 9.78 µM. For the same molecule, the “Selectivity Index (SI) MLR/B-cell” value [3] was 14.73.
